Experimental data as given in patent US8293786B2 (Alltranz Inc., priority 2007, dated 2012).

Key:
[1] = Plasma stability of cannabidiol prodrugs (bioconversion to parent drug); type: in vitro ADME; conditions: for % mono-prodrug at time (h) / % Di-prodrug at time (h): di-prodrug in plasma; for % mono-prodrug at time (h): mono-prodrug formed; for % Prodrug at time (h): mono-prodrug in plasma
Protocol: An approximated 1 mg/mL stock solution of each prodrug was prepared in 100 μL of ethanol and 900 μL of acetonitrile. Ten (10) μL of stock was spiked into 1 mL of plasma and vortexed. The samples were kept sealed in an amber vial and samples were obtained to analyze for bioconversion to parent drug.

[2] = test system: human abdominal skin; assay: In vitro human skin permeation and skin disposition, flow-through diffusion cells (Examples 2, 2A, 2B); type: in vitro ADME; conditions: for 30 h cumulative amt / 30 h skin conc / Flux / Lag time / Flux enhancement / 24 h cumulative amt / 24 h skin conc: 40% aqueous PEG 400 receiver fluid; for Flux enhancement: total cannabidiol versus cannabidiol
Protocol: Flow through diffusion cells were used for the permeation studies. HEPES-buffered Hanks' balanced salts containing 40% PEG 400 with gentamicin or 40% aqueous PEG 400 with gentamicin were used for the receiver compartment. Donor solution was comprised of 90:8:2 PG:H2O:IPM solution or gel formulation. […] Drug accumulation in the skin after a 24, 30 or 42 h diffusion experiment was determined as μmol/g wet tissue weight.
The skin samples used in the following experiments were obtained from abdominal reduction surgery and dermatomed to a thickness of approximately 200 μm. The skin samples used herein were frozen at −20° C. for less than six months.
One (1) L of receiver fluid was prepared by measuring 1 L of nanopure water into a graduated cylinder. 90% of the water was added to an Erlenmeyer flask. Hanks' salts (1 bottle) were added to the water along with 5.96 g of HEPES and 0.35 g of sodium bicarbonate. The pH of the solution was adjusted with 1 N sodium hydroxide solution to pH 7.4. The remaining water was added and the receiver fluid was filtered through a 0.2μ filter (Millipore, Billerica, Mass.). Fifty (50) mg of gentamicin was added to the filtered receiver fluid and 400 mL of the receiver fluid was removed and replaced with 400 mL of PEG 400.
The receiver fluid was prepared by measuring 600 mL of nanopure H2O into a graduated cylinder. The H2O was filtered through a 0.2μ filter (Millipore, Billerica, Mass.). Fifty (50) mg of gentamicin was added to the filtered H2O and 400 mL of PEG 400 was added.
The prodrugs were made up in a solution of 45:4:1 PG:H2O:IPM. For this solution, the appropriate amount of drug was weighed into a glass silanized culture tube and IPM was added, the 50 μL of PG to coat the drug, then an additional 247 μL PG was added and the donor solution was vortexed again. Finally 26 μL of water was added. The gel formulation resulted from the mixing of absolute ethanol, nanopure water, IPM, Carbopol® 980, 0.1 N sodium hydroxide solution and the respective drug.
The gel formulation was comprised of absolute ethanol, nanopure water, IPM, Carbopol® 980, 0.1 sodium hydroxide solution and respective drug. The anhydrous gel was comprised of absolute ethanol, PEG monoethyl ether 550, Klucel® hydroxypropylcellulose, and respective drug.
Dermatomed skin harvested from abdominoplasty, stored at −20° C., was used for the experiments. A PermeGear flow-through (In-Line, Hellertown, Pa.) diffusion cell system was used for the skin permeation studies.
Diffusion cells were kept at 32° C. with a circulating water bath. Human epidermal skin was arranged in the diffusion cell with stratum corneum (upper layer of skin) facing the donor compartment. The permeation area of the skin was 0.95 cm^2. The data was collected from a human skin donor with three diffusion cells per treatment.
The receiver solution was HEPES-buffered Hanks' balanced salts with gentamicin containing 40% PEG 400 at a pH of 7.4 or 40% aqueous PEG 400 and flow rate was adjusted to 0.8 mL/h. Each cell was charged with 0.10 mL of the respective drug formulation (donor solution) or 50 μL of gel formulation which was rubbed into the skin for 15 sec with a Teflon coated rod. The formulation was applied to ensure complete coverage. […]. Diffusion cells were covered with a stopper or cap for the duration of the study.
Samples were collected into scintillation vials in 3 h increments for either 24, 30, or 42 h. All the samples were stored at 4° C. until extracted. An aliquot (0.5 mL) of the diffusion sample was placed into a silanized HPLC vial and 0.5 mL of acetonitrile was added to the sample, capped and vortexed.
At the end of the experiment, the skin tissue was removed from the diffusion cell, rinsed with nanopure water, and blotted dry with a paper towel. The skin was tape stripped twice using book tape (Scotch™, 3M, St. Paul, Minn.) to remove drug formulation adhering to the tissue surface.

[3] = Table 18, 90:8:2 PG:H2O:IPM donor solution, CBD from applied prodrug
[4] = Table 18, 90:8:2 PG:H2O:IPM donor solution, as applied compound (CBD or intact prodrug)
[5] = Table 18, 90:8:2 PG:H2O:IPM donor solution, mono-prodrug from applied di-prodrug
[6] = Table 18, 90:8:2 PG:H2O:IPM donor solution, prodrug applied, as total cannabidiol equivalents
[7] = Table 23, gel formulation, as applied compound (CBD or intact prodrug)
[8] = Table 23, gel formulation, mono-prodrug (ALL00149) from applied di-prodrug
[9] = Table 23, gel formulation, prodrug applied, as total cannabidiol equivalents
[10] = Table 23, gel formulation, CBD from applied prodrug

C=C(C)[C@@H]1CCC(C)=C[C@H]1c1c(OC(=O)CO)cc(CCCCC)cc1OC(=O)CO [ALL00147, CBD Diglycolate]
% mono-prodrug at time (h) ([1]; Table 20, 0.5 h): 0% | % mono-prodrug at time (h) ([1]; Table 20, 2 h): 0% | % mono-prodrug at time (h) ([1]; Table 20, 22 h): 0% | % mono-prodrug at time (h) ([1]; Table 20, 24 h): 0% | % Di-prodrug at time (h) ([1]; Table 20, 0 h): 100% | % Di-prodrug at time (h) ([1]; Table 20, 0.5 h): 55% | % Di-prodrug at time (h) ([1]; Table 20, 2 h): 32% | % Di-prodrug at time (h) ([1]; Table 20, 22 h): 13% | % Di-prodrug at time (h) ([1]; Table 20, 24 h): 12% | % mono-prodrug at time (h) ([1]; Table 24, 0 h): 3% | % mono-prodrug at time (h) ([1]; Table 24, 0.5 h): 37% | % mono-prodrug at time (h) ([1]; Table 24, 1 h): 10% | % mono-prodrug at time (h) ([1]; Table 24, 2 h): 2% | % Di-prodrug at time (h) ([1]; Table 24, 0 h): 97% | % Di-prodrug at time (h) ([1]; Table 24, 0.5 h): 0% | % Di-prodrug at time (h) ([1]; Table 24, 1 h): 0% | % Di-prodrug at time (h) ([1]; Table 24, 2 h): 0% | 30 h cumulative amt [2, 3]: 8.2 ± 7.0 nmol | 30 h skin conc [2, 3]: 3.9 ± 0.8 µmol/g | Flux [2, 3]: 0.7 ± 0.6 nmol/cm^2/h | Lag time [2, 3]: 16.7 ± 0.7 h | 30 h cumulative amt [2, 4]: 11.7 ± 3.8 nmol | 30 h skin conc [2, 4]: 6.3 ± 5.6 µmol/g | Flux [2, 4]: 0.7 ± 0.01 nmol/cm^2/h | Lag time [2, 4]: 13.0 ± 5.9 h | 30 h cumulative amt [2, 5]: 9.1 ± 0.2 nmol | 30 h skin conc [2, 5]: 7.1 ± 6.3 µmol/g | Flux [2, 5]: 0.6 ± 0.2 nmol/cm^2/h | Lag time [2, 5]: 11.8 ± 5.9 h | 30 h cumulative amt [2, 6]: 29.0 ± 3.4 nmol | 30 h skin conc [2, 6]: 17.3 ± 12.6 µmol/g | Flux [2, 6]: 1.9 ± 0.8 nmol/cm^2/h | Lag time [2, 6]: 13.3 ± 5.0 h | Flux enhancement ([2]; Table 18, 90:8:2 PG:H2O:IPM donor solution): 0.24 | 24 h cumulative amt [2, 7]: 0.9 nmol | 24 h skin conc [2, 7]: 0.8 ± 0.7 µmol/g | 24 h cumulative amt [2, 8]: 5.7 nmol | 24 h skin conc [2, 8]: 8.7 ± 6.6 µmol/g | Flux [2, 8]: 0.25 nmol/cm^2/h | 24 h cumulative amt [2, 9]: 12.5 nmol | 24 h skin conc [2, 9]: 9.5 ± 7.3 µmol/g | Flux [2, 9]: 0.58 nmol/cm^2/h | Flux enhancement ([2]; Table 23, gel formulation): 2.0 | detected in the skin as ([2]; in donor solution): prodrug, mono-substituted prodrug, ALL00149, and cannabidiol | flux compared to cannabidiol ([2]; in donor solution): did not increase the flux | lag time compared to cannabidiol ([2]; in donor solution): not decreased | permeated through the skin as ([2]; in donor solution): intact prodrug, mono-substituted prodrug (ALL00149), and cannabidiol | total skin concentrations compared to cannabidiol ([2]; in donor solution): not higher | detected in the skin as ([2]; in gel formulation): primarily as mono-prodrug, ALL00149 with a trace amount of ALL00147 | increase of the flux compared to cannabidiol ([2]; in gel formulation): 2 fold | share permeated through the skin as cannabidiol ([2]; in gel formulation): 47.2% | share permeated through the skin as intact di-prodrug ([2]; in gel formulation): 7.2% | share permeated through the skin as mono-prodrug ([2]; in gel formulation): 45.6% | total skin concentrations compared to cannabidiol ([2]; in gel formulation): weren't higher

C=C(C)[C@@H]1CCC(C)=C[C@H]1c1c(O)cc(CCCCC)cc1OC(=O)CO [ALL00149, CBD Glycolate]
% Prodrug at time (h) ([1]; Table 24, 0 h): 100% | % Prodrug at time (h) ([1]; Table 24, 0.5 h): 31% | % Prodrug at time (h) ([1]; Table 24, 1 h): 12% | % Prodrug at time (h) ([1]; Table 24, 2 h): 0% | 24 h cumulative amt [2, 10]: 1.2 nmol | 24 h skin conc [2, 10]: 0.9 ± 0.0 µmol/g | 24 h cumulative amt [2, 7]: 5.8 nmol | 24 h skin conc [2, 7]: 46.0 ± 11.5 µmol/g | Flux [2, 7]: 0.29 nmol/cm^2/h | Lag time [2, 7]: 6.4 h | 24 h cumulative amt [2, 9]: 6.9 nmol | 24 h skin conc [2, 9]: 46.3 ± 11.8 µmol/g | Flux [2, 9]: 0.40 nmol/cm^2/h | Lag time [2, 9]: 6.2 h | Flux enhancement ([2]; Table 23, gel formulation): 1.4 | detected in the skin as ([2]; in gel formulation): primarily ALL00149 with a trace amount of cannabidiol | lag time compared to cannabidiol ([2]; in gel formulation): lower | permeated through the skin as ([2]; in gel formulation): primarily ALL00149 with a trace amount of cannabidiol | total skin concentrations compared to cannabidiol ([2]; in gel formulation): higher | increase of the flux compared to cannabidiol ([2]; in gel formulation, unit not given): 1.4
